US6569862B1, “Methods for treatment of disorders of cardiac contractility” (Johns Hopkins University, priority 1997, dated 2003)
“Also recorded” adds a separate entry of the source.

Legend:
cardiac muscle = experiment: steady-state analysis of calcium sensitivity (steady-state force versus steady-state [Ca2+]i); format: cell-based, rat; conditions: for effects on calcium sensitivity, comparison of the two agents: FIG. 4
From the text: A particularly rigorous method of assessing calcium sensitivity is by steady-state analysis by procedures disclosed in Gao, W. D. et al., supra. […] That response represents defining characteristics of a calcium-sensitizing agent.

[1] = plasma level estimate in 25 kg dogs; format: in vivo; conditions: 200 mg i.v. in 25 kg dogs
From the text: (§1) The ECG was continuously monitored.

[2] = tested on: LV contractility in conscious dogs; experiment: cardiac performance in conscious dogs before and after pacing-induced heart failure (pressure-dimension relations); format: in vivo; conditions: for PRSW (slope of stroke work/end-diastolic dimension relation): 200 mg infused over 30 minutes in the right atrium
From the text: 1. Surgical preparation for chronic dog protocol. Male mongrel dogs (20-30 kg) were anesthetized with 1-2% halothane after induction with sodium pentothal. The chest was opened via a lateral thoracotomy, and indwelling catheters (Tygon; Norton Plastics and Synthetic Division) were secured in the right atrium (for drug infusion) and in the descending aorta (for pressure measurement). An indwelling high fidelity micromanometer (P22, Konigsberg Instruments) was placed in the left ventricle (LV) through an apical stab. […] Pacing leads were attached to the left atrium for acute pacing during experimentation, and epicardial leads for chronic pacing were attached to the right ventricular free wall and connected to a programmable pacemaker (Spectrax, Medtronics) within a subcutaneous pocket. The chest was closed in layers, catheters and leads were externalized to the mid-scapulae, and protected by an external jacket. Analgesia (morphine, 10 mg s.c.) was given in the immediate postoperative period as necessary. Antibiotics were administered for the first 72 hours after surgery. The dogs were allowed to recover fully for 7-10 postoperative days before experimentation. The surgical and experimental protocol was approved by Johns Hopkins School of Medicine Animal Care and Use Committee.
3. Heart failure was induced by chronic rapid ventricular pacing at a rate of 210 bpm for 3 weeks, followed by 240 bpm for one week. […] Acute pacing (140 bpm) was used to keep heart rate constant during the experiments.
a. The analysis of pressure-dimension relationships and the arterial pressure response allowed the evaluation of variables related to myocardial systolic and diastolic performance. […] Preload was indexed as the left ventricular end diastolic anterior -posterior short axis dimension (LVEDD) or the LV end-diastolic volume from the conductance catheter. Afterload was evaluated as effective arterial elastance (Ea, ratio of LV systolic pressure to stroke dimension (Kass, D. A. 1997, Myocardial Mechanics. In Heart Failure. P. Poole-Wilson et al., eds. Churchill Livingstone, New York. 87-108; Kelly, R. P., C. T. Ting, and T. M. Yang. 1992, Circulation 86:513-521). This parameter is not preload-dependent and has been validated to reflect total afterload, which incorporates systemic vascular resistance, aortic impedance, and the reflected wave properties of the vasculature. Contractility was indexed by +dP/dt and the load-independent parameter, preload-recruitable stroke work (PRSW; slope of stoke work/end-diastolic dimension relation) (Kass, D. A., 1986, Circulation 73:586-595). Diastolic performance was measured by peak −dP/dt, time to peak filling rate (ttpf), and the time constant of relaxation (tau). Tau was calculated using the method of Weiss and colleagues (Ingwall, J. S. 1993, Circulation 87:VII-58-VII-62.).
as §1

canine left ventricle = experiment: cardiac energetics (O2 consumption, mechanical efficiency) in anesthetized control and heart failure dogs; format: in vivo
Procedure: 3. Heart failure was induced by chronic rapid ventricular pacing at a rate of 210 bpm for 3 weeks, followed by 240 bpm for one week. This brought the dogs into heart failure with an average left ventricular end-diastolic pressure (LVEDP) of 23.5∀5.2 mm Hg. Acute pacing (140 bpm) was used to keep heart rate constant during the experiments.
b. Oxygen consumption per unit time (MVO2) in the left circumflex artery territory was calculated from the difference in oxygen saturation in simultaneously sampled coronary sinus and aortic blood, multiplied by left circumflex coronary blood flow. This, in turn, was calculated from flow velocity multiplied by left circumflex diameter. Left circumflex diameter was analyzed from a film projector (CAP 35B, Angiogram Projection System) using quantitative angiography (Cath View v1.36, Image Comm Systems).
c. The external useful work of the LV was indexed as stroke work (SW=area of pressure-volume loops). Both stroke SW and MVO2 were converted to Joules per beat (Suga, H. et al. 1983, Circ. Res. 53:306-318). Cardiac mechanical efficiency was calculated as SW/MVO2. Hemodynamic pressure-dimension data were digitized at 200 Hz and stored for subsequent analysis on a personal computer using customized software.
Isoflurane was chosen as the anesthetic because of its relatively mild and stable effect on the cardiovascular system (R M. Jones, British Journal of Anaesthesia, 56 Suppl 1:57S-69S (1984); E. I. Eger, British Journal of Anaesthesia, 56 Suppl 1:71S-99S (1984)). A doppler flow velocimeter (0.014 Cardiometrics) and a 6 Fr. angiography catheter (AL-I or JL 3.5, Cordis Laboratories Inc) were inserted through an 8 Fr sheath (Cordis) in the right femoral artery and advanced to the left circumflex coronary artery. These catheters permitted measurement of coronary flow and injection of contrast for the measurement of coronary diameter. A catheter (A2 multipurpose, 6 Fr.) was advanced from the left external jugular vein via a 7 Fr. sheath (Cordis) into the great cardiac vein for withdrawal of mixed coronary venous blood. To measure cardiac oxygen consumption, blood samples from the coronary sinus and the femoral artery were obtained simultaneously. At each time point, blood flow velocity in the left circumflex artery was measured and coronary angiography was performed.
In 4 of 11 experiments, preexisting indwelling sonomicrometer crystals, Konigsberg micromanometers, and IVC occluders (see above) were used for dimension and pressure measurements, and for acute preload reduction. In the other 7 experiments, a combined micromanometer-conductance catheter (M!illar) was advanced to the LV and positioned for continuous measurement of LV pressure and volume via a 7 Fr. sheath (Cordis) in the femoral artery. A Swan-Ganz catheter (Arrow, 7 Fr.) was advanced via a 9F sheath in the femoral vein to the pulmonary artery for measurement of cardiac output and for hypertonic saline wash-in (Baan, J., E. van der Velde, A. D. van Dijk and et al. 1992, In Cardiovascular system dynamics: Models and measurements. Anonymous Plenum Press, New York, 569; Kass, D. A. et al. 1986. Circulation 73:586-595) to calibrate the volume signal. This catheter was then replaced with a balloon occlusion catheter (Cordis) positioned in the IVC for acute preload reduction for pressure-volume analysis.
A combined manometer-conductance catheter was positioned in the left ventricle for continuous measurement of volume and pressures in the ventricle and aorta. Volume was calibrated with measurement of cardiac output and hypertonic saline wash-in. In addition, dogs were acutely instrumented a doppler flow velocimeter probe and an angiography catheter in the left circumflex coronary artery to measure coronary flow velocity and coronary diameter. […]

[3] = after a standard dose (300 mg p.o.); cited from earlier work
[4] = value used for the dose extrapolation in 25 kg dogs; cited from earlier work
phosphodiesterase = conditions: stated as well established; cited from earlier work
rat cardiac muscle = experiment: in vitro calcium-sensitizing assay: contractile force and fura-2 [Ca2+]i in rat cardiac muscle

Oc1ncnc2[nH]ncc12 [allopurinol, 4-hydroxy-pyrazolo[3,4-d]pyrimidine]
effects on calcium sensitivity, comparison of the two agents (cardiac muscle): essentially indistinguishable effects on calcium sensitivity
maximal force (cardiac muscle; steady-state analysis, FIG. 2): increased maximal force
contractile activation curve (steady-state force vs steady-state [Ca2+]i) (cardiac muscle; versus control muscles exposed to no drug, FIG. 2): shifted the contractile activation curve to lower [Ca^2+]i
plasma level estimated to be attained [1]: 4.5 mg/L
effect on healthy dogs ([2]; acted only in dogs with heart failure): did not adversely affect healthy dogs
PRSW (slope of stroke work/end-diastolic dimension relation) ([2]; after pacing-induced heart failure): increased the slope after heart failure
change of (dP/dt)max at the peak response ([2]; control dogs (n=10), 10 min after end of infusion, p=0.01): +8.3±3.2%
(dP/dt)max at the peak response ([2]; control dogs (n=10), 10 min after end of infusion, base line value 3101±162): 3373±225 mm Hg/s
PRSW (slope of stroke work/end-diastolic dimension relation) ([2]; control dogs): did not affect the slope of the PRSW relation; also recorded: not significantly changed
effect on diastolic function ([2]; in vivo use, dogs): no adverse effect on diastolic function
oxygen utilization (canine left ventricle; failing canine left ventricle, 200 mg iv): decreases oxygen utilization
myocardial arterio-venous oxygen difference (canine left ventricle; heart failure dogs, 200 mg iv): not changed
change in left circumflex blood flow (canine left ventricle; heart failure dogs, 10 min post-infusion of 200 mg iv over 30 minutes, p=0.0015): −40±6%
plasma levels achieved in humans [3]: 3 to 9 mg/L
distribution volume [4]: 1.6 L/kg
phosphodiesterase inhibition (phosphodiesterase): no phosphodiesterase inhibition
calcium ion concentration ([Ca2+]i) (rat cardiac muscle; fura-2, FIG. 1): decreasing calcium ion concentration
contractile force (rat cardiac muscle; relative to control not exposed, FIG. 1): increases contractile force

CC(CCc1ccc(O)cc1)NCCc1ccc(O)c(O)c1 (centres unmarked) [dobutamine]
increase of oxygen consumption (canine left ventricle; heart failure dogs, infusion 10 μg/Kg/min, p=0.007): 145±53.0%
change of SW/MVO2 (canine left ventricle; heart failure dogs, infusion 10 μg/Kg/min, p=0.05): −29.3±6.8%
mechanical efficiency (canine left ventricle; heart failure dogs, infusion 10 μg/Kg/min, FIG. 9): significant decrease in mechanical efficiency

Oc1nc(O)c2cn[nH]c2n1 [oxypurinol, 4,6-dihydroxypyrazolo[3,4-d]pyrimidine]
effects on calcium sensitivity, comparison of the two agents (cardiac muscle): essentially indistinguishable effects on calcium sensitivity
force at any given [Ca2+]i (cardiac muscle; treated versus control muscles, FIG. 3): generate more force at any given [Ca^2+]i than control muscles
